Measurements reported in patent US4666924A, “Certain pyridyl substituted aminomethyl benzene derivatives having anti-arrhythmic activity” (priority 1984, dated 1987).
Where two headings read alike, the source gives them in different places.

Experiments:
patients = conditions: cited from earlier work
[1] = system: Harris dog (ventricular arrhythmias); experiment: Antiarrhythmic activity by coronary ligation in the Harris dog model; format: in vivo, adult mongrel dogs; conditions: for minimal effective dose: Canis lupus familiaris, 5 min, read-out: Antiarrhythmic ED in Harris Dog (effective dose required to sustain normal sinus rhythm)
From the text: The following examples describe the pharmacological evaluation of the compounds made in accordance with the present invention. In particular, these examples describe the evaluation of antiarrhythmic activity by coronary ligation in the well known Harris dog model. Ventricular arrhythmias were induced in adult mongrel dogs (10-15 kg) of either sex by two-state ligation of the left anterior descending coronary artery. […] The test compound in saline was infused intravenously at a cumulative rate of 0.3 mg/kg/min (base) until normal sinus rhythm or toxicity occurred. Normal sinus rhythm was defined as 90-100% normal complexes over a 5 min period.

guinea pig ileum = experiment: In vitro anticholinergic activity in the isolated guinea pig ileum (field stimulation); format: cell-based, male Hartley guinea pigs; conditions: for inhibition at 4 µg/mL: Cavia porcellus, read-out: Anticholinergic Inhibition of Guinea Pig Ileum
Description: The following examples describe the in vitro evaluation of anticholinergic activity in the isolated guinea pig ileum. Fasted, male Hartley guinea pigs (300-400 g) were killed by a blow to the head. […] One end of the ileal strip was impaled onto a platinum wire electrode; and the other end was tied to a stationary glass rod. Basal tension was set at 0.1-0.3 g and peak developed tension in response to field stimulation (100-150 V, 10 msec pulse duration, 0.2 Hz) was measured with a tension transducer.

[2] = system: vagal stimulation of the heart and peripheral parasympathetic stimulation; conditions: cited from earlier work
cardiac cells = conditions: cited from earlier work; for effects on impulse formation, conduction velocity and refractory period: cardiac cells
[3] = IV infusion in saline, cumulative rate 0.3 mg/kg/min (base), day after two-stage ligation of left anterior descending coronary artery, normal sinus rhythm = 90-100% normal complexes over 5 min
[4] = at 4 mg/L, field stimulation 100-150 V, 10 msec, 0.2 Hz
[5] = patients, management of arrhythmias

| SMILES | minimal effective dose [1, 3] | inhibition at 4 µg/mL (guinea pig ileum; [4]) | further results |
| --- | --- | --- | --- |
| C=C[C@H]1C[N@@]2CC[C@H]1C[C@@H]2[C@@H](O)c1ccnc2ccc(OC)cc12 (stereo in doubt) [Quinidine, 6-methoxy-α-(5'-vinyl-2-quinuclidinyl)-4-quindinemethanol] | 10.1 mg/kg | 62% | adverse side-effects (patients; human, in vivo): cardiotoxicity, diarrhea, nausea, vomiting, fever, hypertension and depression of myocardial contractility; anticholinergic action [2]: indirect anticholinergic actions; effects on impulse formation, conduction velocity and refractory period (cardiac cells): depress impulse formation, slow conduction velocity, and increase the duration of the refractory period of cardiac cells |
| Oc1c(CN2CCCC2)cc(Nc2ncnc3ccccc23)cc1CN1CCCC1 [Changrolin, 4-[3',5'-bis[N-pyrolidinylmethyl]-4'-hydroxyanilino]-quinazoline] | 10.3 mg/kg | 43% | adverse side-effects (patients; [5]): skin discoloration in some patients; anticholinergic action [2]: substantial anticholinergic activity; antiarrhythmic effectiveness of known agent (cardiac cells; background statement): effective antiarrhythmic agent |
| CC(C)N(CCC(C(N)=O)(c1ccccc1)c1ccccn1)C(C)C (stereo not drawn) [Disopyramide, α[2-(diisopropylamino)-ethyl]α-phenol-2-pyridineacetamide] | – | – | adverse side-effects (patients; [5]): dryness of the mouth, blurred vision, constipation, and urinary retention, and depression of myocardial contractility; minimal effective dose ([1]; iv): 6.8 mg/kg; inhibition at 4 µg/mL (guinea pig ileum): 81%; anticholinergic action [2]: indirect anticholinergic actions; effects on impulse formation, conduction velocity and refractory period (cardiac cells): depress impulse formation, slow conduction velocity, and increase the duration of the refractory period of cardiac cells |
| Nc1cc(CN2CCCC2)c(O)c(CN2CCCC2)c1 [Example I, 3,5-bis(N-pyrrolidinylmethyl)-4-hydroxyaniline] | – | 3% | Antiarrhythmic ED in Harris Dog (effective dose required to sustain normal sinus rhythm) [1, 3]: inactive |
| Oc1ccc(Nc2ncnc3ccccc23)cc1 [Example II, 4-(4'-hydroxyanilino)-quinazoline] | – | 13% | Antiarrhythmic ED in Harris Dog (effective dose required to sustain normal sinus rhythm) [1, 3]: inactive |
| Oc1ccc(Nc2nncc3ccccc23)cc1 [Example III, 1-(4'-hydroxyanilino)phthalazine] | – | 23% | Antiarrhythmic ED in Harris Dog (effective dose required to sustain normal sinus rhythm) [1, 3]: inactive |
| Oc1c(CN2CCCC2)cc(Nc2nncc3ccccc23)cc1CN1CCCC1 [Example IV, 1[3',5'-bis[N-pyrrolidinylmethyl]-4'-hydroxyanilino]-phthalazine] | 1.5 mg/kg | 83% | – |
| Oc1c(CN2CCCC2)cc(Nc2nnc(Cl)c3ccccc23)cc1CN1CCCC1 [Example V, 1-N-[3',5'-bis(N-pyrrolidinylmethyl)-4'-hydroxyanilino]-4-chlorophthalazine] | 2.5 mg/kg | 76% | – |
| Oc1c(CN2CCCC2)cc(Nc2ccc(Cl)nn2)cc1CN1CCCC1 [Example X, 3-N-[3',5'-bis(N-pyrrolidinylmethyl)-4'-hydroxyanilino]-6-chloropyridazine] | 10.5 mg/kg | 40% | – |
| Oc1c(CN2CCCC2)cc(Nc2ncccn2)cc1CN1CCCC1 [Example XI, 2-N-[3',5'-bis(pyrrolidinylmethyl)-4'-hydroxyanilino]-pyrimidine] | – | 6% | Antiarrhythmic ED in Harris Dog (effective dose required to sustain normal sinus rhythm) [1, 3]: low activity |
| Cc1cc(Nc2cc(CN3CCCC3)c(O)c(CN3CCCC3)c2)c2ccccc2n1 [Example XIV, 2-methyl-4-[3',5'-bis(N-pyrrolidinylmethyl)]-4'-hydroxyanilinoquinoline] | 9.5 mg/kg | – | – |
| Oc1c(CN2CCCC2)cc(Nc2ccnc3cc(Cl)ccc23)cc1CN1CCCC1 [Example XV, 4-[3',5'-bis(N-pyrrolidinylmethyl)-4'-hydroxyanilino]-7-chloroquinoline] | – | 27% | Antiarrhythmic ED in Harris Dog (effective dose required to sustain normal sinus rhythm) [1, 3]: low activity |
| Oc1c(CN2CCCC2)cc(Nc2ccnc3ccccc23)cc1CN1CCCC1 [Example XVI, 4-[3',5'-bis(N-pyrrolidinylmethyl)-4'-hydroxyanilino]-quinoline] | – | 19% | Antiarrhythmic ED in Harris Dog (effective dose required to sustain normal sinus rhythm) [1, 3]: low activity |
| Oc1c(CN2CCCC2)cc(Nc2ccc3ccccc3n2)cc1CN1CCCC1 [Example XVII, 2-[3',5'-bis(N-pyrrolidinylmethyl)-4'-hydroxyanilino]-quinoline] | 6 mg/kg | 50% | – |
| CN(C)Cc1cc(Nc2nncc3ccccc23)cc(CN(C)C)c1O [IX] | 14 mg/kg | 14% | – |
| Oc1ccc(Nc2nnc(Cl)c3ccccc23)cc1CN1CCCC1 [VI, 1-N-[3'-N-pyrrolidinylmethyl-4'-hydroxyanilino]-4-chlorophthalazine] | 17 mg/kg | 65% | – |
| COc1nnc(Nc2cc(CN3CCCC3)c(O)c(CN3CCCC3)c2)c2ccccc12 [VII, 1-N-[3',5'-bis(pyrrolidinylmethyl)-4'-hydroxyanilino]-4-methoxyphthalazine] | – | 84% | Antiarrhythmic ED in Harris Dog (effective dose required to sustain normal sinus rhythm) [1, 3]: low activity |
| Oc1c(CN2CCCC2)cc(Nc2nccc3ccccc23)cc1CN1CCCC1 [VIII, 1-N-[3',5'-bis(pyrrolidinylmethyl)-4'-hydroxyanilino]-isoquinoline] | 1.1 mg/kg | – | Anticholinergic Inhibition of Guinea Pig Ileum (guinea pig ileum; [4]): active |
| COc1cc2c(Nc3cc(CN4CCCC4)c(O)c(CN4CCCC4)c3)ncnc2c(OC)c1OC [XII, 4-[3',5'-bis(pyrrolidinylmethyl)-4'-hydroxyanilino]-6,7,8-trimethoxyquinazoline] | – | 14% | – |
| Oc1c(CN2CCCC2)cc(Nc2ccnc3cc(C(F)(F)F)ccc23)cc1CN1CCCC1 [XIII, 4-[3',5'-bis(N-pyrrolidinylmethyl)-4'-hydroxyanilino]-7-trifluoromethylquinoline] | 3 mg/kg | 36% | – |
| Oc1c(CN2CCCC2)cc(CNc2nnc(Cl)c3ccccc23)cc1CN1CCCC1 [XIX, 1-N-[3',5'-bis(N-pyrrolidinylmethyl)-4'-hydroxybenzylamino]-4-chlorophthalazine] | 4.5 mg/kg | 78% | – |
| Oc1ccc(Nc2ccc3ccccc3n2)cc1CN1CCCC1 [XVIII, 2-[3'-(N-pyrrolidinylmethyl)-4'-hydroxyanilino]-quinoline] | 11 mg/kg | 72% | – |
| Clc1nnc(Nc2cc(CN3CCCC3)cc(CN3CCCC3)c2)c2ccccc12 [XXI] | 3 mg/kg | 93% | – |
| Oc1c(CN2CCCC2)cc(Nc2ccncc2)cc1CN1CCCC1 [XX] | 8 mg/kg | 5% | – |
